Experimental data from US20140364454A1, “METAL-CHELATING COMPOUNDS HAVING AT LEAST ONE POLYAMINO CHAIN” (UNIVERSITE DE RENNES I, priority 2011, published 2014).
Read-outs that look alike come from different tables or passages of the source.

What was measured:
[1] = test system: wild cell line (CHO) of hamster ovarian cells; experiment: Anti-proliferative effect on CHO cells, counting of cell nuclei (Hoechst 33342); assay type: cell-based; details: CHO, 72 h, read-out: IC50 CHO
Procedure: (§1) The in vitro efficacy of different Quilamines was tested on a wild cell line (CHO) of hamster ovarian cells having PTS and a mutant cell line CHO-MG without PTS. The two cell types CHO and CHO-MG were treated, 24 hours after being seeded in 96-well microplates, by concentrations of different Quilamines ranging from 0.1 to 400 micromoles per liter. The cytostatic (anti-proliferative) effects and cytotoxic effects of Quilamine after 72 hours' treatment of the cells were assessed respectively by counting cell nuclei after DNA marking by the Hoechst 33342 fluorescent intercalant dye and by analysis of membrane damage detected by the dosing of the lactate dehydrogenase activity (LHD) in the supernatants.
The IC50 inhibitor concentration corresponding to the concentration in Quilamines enables the inhibition at 50% of the cell proliferation was deduced from the dose-effect curves of numeration of the nuclei of the living cells on the CHO and CHO-MG cell lines. […] The lower the value of IC50, the greater the efficiency of the anti-proliferative effect of the tested chelators.
(§2) A comparison was made of the cytostatic or anti-proliferative action and the cytotoxic action for 72 h of treatment by Quilamine HQ1-44 and 8-hydroxyquinoline and ICL670, on the CHO cell lines in the presence and without the presence of exogenous iron, in the form of Fe(III) citrate in a concentration of 20 micromoles per liter. The results obtained are shown in FIG. 4, FIG. 4A relating to the results on cell viability and FIG. 4B relating to the results on cell toxicity.

Caco-2 cells [2] = experiment: LDH release of Caco-2 cells; assay type: cell-based, human
Procedure: (§3) The action of Quilamines on the cell viability was analyzed on enterocyte cells of the Caco-2 tumor cell line derived from human colon carcinoma and compared with the action of ICL670 in the presence or absence of exogenous iron, after activation (DFMO) or competitive inhibition by spermidine, of the PTS. The operating conditions used are identical to those used for CHO/CHO-MG and HepG2 cells.
As in the case of the other cell lines in proliferative phase presented here above, the dose-effect curves of the action of the Quilamines on the number of viable cells (number of nuclei) are biphase curves with a cytostatic constituent for concentration values of below 30 micromoles per liter and a cytotoxic constituent with release of LDH for concentration values above 30 micromoles per liter. Only this second cytotoxic constituent is observed when the cells of the Caco-2 cell line are treated after confluence (stopping of the proliferation).

[3] = Potentiometry: stability constants and pFe3+ of the iron complex; assay type: physicochemical; details: pH 7.4
Procedure: The complexation affinity of Quilamine with the metal ion in the organism reflects the chelating capacity or chelating power of Quilamine. This affinity can be assessed by measuring the value of pW corresponding to −log of the concentration in free metal ion W, i.e. non-complexated by the Quilamine for a ratio of respective concentrations of Quilamine (10 micromoles per liter) and metal ion (1 micromole per liter) equal to 10, at 25° C. and pH 7.4. The higher the value of pW, the greater the affinity of Quilamine with metal ion. The affinity of Quilamine with iron in its ferric form (Fe(III)) and its ferrous form (Fe(II)) is measured respectively by pFe^3+ and pFe^2+ at physiological pH (pH=7.4), at 25° C.
Potentiometry measurements were made in thermostated titration cells at 25±0.1° C., using a Metrohm 702 SM Titrino titrator connected to a Metrohm 6.0233.100. The ligand solution is prepared in a concentration of ˜1.5×10^−3 moles per liter, the solution of Fe^3+ is made from FeCl3 and titrated by complexation with a standard solution of EDTA (ethylenediaminetetracetic acid). The sample for the measurement contained approximately 0.03 millimoles per liter of ligand in a volume of 30 ml where the ionic strength is maintained at 0.1 mole per liter in using KNO3 as a support electrolyte. During the titrations, Fe^3+ is added to 0.45 or 0.9 equivalents of ligand. Each titration consists of 150-200 equilibrium points with pH varying from 2.0 to 11.5, and is repeated at least twice. The thermodynamic constants are computed with the software […] and the speciation diagram of the species is done by the Hyss program.

[4] = test system: mutant cell line CHO-MG without PTS; experiment: Anti-proliferative effect on CHO-MG cells without PTS, counting of cell nuclei; assay type: cell-based, hamster
Excerpt: The IC50 inhibitor concentration corresponding to the concentration in Quilamines enables the inhibition at 50% of the cell proliferation was deduced from the dose-effect curves of numeration of the nuclei of the living cells on the CHO and CHO-MG cell lines. These dose-effect curves are sometimes bi-phase curves as in the case of Quilamine HQ1-44 which has an anti-proliferative constituent (without concomitant release of LDH in supernatant) in the range of concentrations of 0.4 to 3 micromoles per liter and a second cytotoxic constituent accompanied by membrane toxicity expressed by the release of LDH for concentrations of over […]. The lower the value of IC50, the greater the efficiency of the anti-proliferative effect of the tested chelators.
Furthermore, the ratio of the IC50 inhibitor concentrations found for the CHO-MG and the CHO cell lines (Ratio IC50 (CHO-MG/CHO)) was computed for several Quilamines according to the invention. This ratio makes it possible to estimate the selectivity of recognition of the different chelators by the PTS: the higher the ratio, the more clearly is the chelator recognized by the PTS. When this ratio is close to 1, the tested chelator is not recognized or is little recognized by the PTS.

CHO cells = experiment: Cytotoxic effect on CHO cells, LDH release in supernatants; details: CHO
Procedure: as §1, §2

Caco-2 cells [5] = experiment: Cell viability of proliferating Caco-2 cells (number of nuclei); assay type: cell-based, human
Procedure: as §3
The results for the measurement of the anti-proliferative effect of Quilamines, and of ICL670 on the proliferating cells (cytostatic constituent) when there is no exogenous iron have been listed in the table 4 below.

[6] = pH 7.4; stated reference values; cited from earlier work

| Structure (SMILES) | IC50 [1] [µM] | % LDH/control 10 μM (Caco-2 cells [2]; Caco-2 J4, 10 μM) [%] | % LDH/control 100 μM (Caco-2 cells [2]; Caco-2 J4, 100 μM) [%] | pFe3+ [3] | IC50 ([4]; CHO-MG, 72 h treatment) [µM] | Ratio IC50 (CHO-MG/CHO) ([4]; selectivity of recognition by the PTS) | influence of exogenous iron on the cytotoxic effect (CHO cells; Fe(III) citrate 20 micromoles per liter) | chelator concentration giving cytotoxic effect with release of LDH (CHO cells; absence of exogenous iron) | Constituent 2 (10-100 μM) % cell (Caco-2 cells [5]; Caco-2 J4, no exogenous iron) [%] | IC50 (Caco-2 cells [5]; Homo sapiens, Caco-2, read-out: Constituent 2 (10-100 μM) IC50) [µM] | pFe3+ [6] |
| --- | --- | --- | --- | --- | --- | --- | --- | --- | --- | --- | --- |
| Oc1cccc2cccnc12 [8-hydroxyquinoline, reference compound] | 5 | 281 | 353 | 20.6 | 10.5 | 2 | no modification | greater than or equal to 5 micromoles per liter | 100 | 5 |  |
| O=C(O)CN(CC(=O)O)Cc1cc2c(cc1O)Oc1cc(O)c(CN(CC(=O)O)CC(=O)O)cc1C21OC(=O)c2ccccc21 [Calcein, reference compound] |  |  |  |  |  |  |  |  |  |  | 20.3 |
| O=C(O)CC(O)(CC(=O)O)C(=O)O [citrate] |  |  |  |  |  |  |  |  |  |  | 19.3 |
